This is an account of results in patent publication US20240376099A1, “COMPOUNDS AND COMPOSITIONS AS INHIBITORS OF ENDOSOMAL TOLL-LIKE RECEPTORS” (Novartis AG, priority 2016, published 2024).

pIC50: −log10 of the molar value.

The assay addresses T1, TLR8 (Homo sapiens, UniProt Q9NR97).
T1 sequence (Q9NR97 27-1041): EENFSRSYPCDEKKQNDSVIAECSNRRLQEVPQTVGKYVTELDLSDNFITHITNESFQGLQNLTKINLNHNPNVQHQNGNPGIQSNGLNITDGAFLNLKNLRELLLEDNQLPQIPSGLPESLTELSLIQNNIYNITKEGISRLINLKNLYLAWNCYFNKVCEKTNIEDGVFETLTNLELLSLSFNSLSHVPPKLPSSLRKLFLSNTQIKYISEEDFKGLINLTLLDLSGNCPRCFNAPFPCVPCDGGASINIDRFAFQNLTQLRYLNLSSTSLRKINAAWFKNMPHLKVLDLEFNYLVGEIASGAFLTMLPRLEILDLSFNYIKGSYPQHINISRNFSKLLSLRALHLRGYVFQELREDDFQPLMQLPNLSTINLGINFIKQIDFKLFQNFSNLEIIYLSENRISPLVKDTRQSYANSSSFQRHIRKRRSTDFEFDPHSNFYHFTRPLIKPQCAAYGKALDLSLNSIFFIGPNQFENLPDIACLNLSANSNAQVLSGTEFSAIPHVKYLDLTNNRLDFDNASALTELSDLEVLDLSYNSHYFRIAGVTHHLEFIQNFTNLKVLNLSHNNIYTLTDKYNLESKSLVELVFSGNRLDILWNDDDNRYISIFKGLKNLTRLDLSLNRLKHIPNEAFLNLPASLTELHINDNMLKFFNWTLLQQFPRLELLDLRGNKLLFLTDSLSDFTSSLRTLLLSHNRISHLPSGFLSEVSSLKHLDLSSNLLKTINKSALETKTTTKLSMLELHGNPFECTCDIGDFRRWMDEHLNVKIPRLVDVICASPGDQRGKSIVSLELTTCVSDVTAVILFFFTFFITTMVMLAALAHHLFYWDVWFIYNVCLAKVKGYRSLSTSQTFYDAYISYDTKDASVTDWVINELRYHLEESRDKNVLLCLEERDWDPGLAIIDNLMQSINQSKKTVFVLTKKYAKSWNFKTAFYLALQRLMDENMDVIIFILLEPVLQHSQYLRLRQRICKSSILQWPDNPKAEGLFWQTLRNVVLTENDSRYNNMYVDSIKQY
In words: huPBMC TLR8 Antagonist IL-6 TR-FRET Assay. The settings on record: human PBMCs stimulated with ssRNA40 1 μg/ml (DOTAP), 14-16 hrs; IL-6 TR-FRET read-out. The assay is classed as cell-based. On the set-up: Fresh blood was collected from normal human donors; endogenous in cells; host or cells: human PBMCs from fresh donor blood. How it is done:
Compounds were generally serially diluted (1/3) in DMSO and plated on sterile 384 well tissue culture plates and stored until ready for use. Each ten-point dilution was typically plated in triplicate in parallel rows.
Fresh blood was collected from normal human donors underwritten informed consent in heparinized syringes on the morning of the assay. The blood was diluted in RPMI-1640 medium and the white blood cells were separated from red blood cells by centrifugation (800 g 15′ 0 acceleration, 0 brake) on a Ficoll cushion. Peripheral blood mononuclear cells (PBMCs) were separated from platelets by a series of low-speed centrifugations (1000RPM 10′) in PBS+5% HI—FBS and 1 mM EDTA. Purified PBMCs were re-suspended in assay medium (RPMI-1640 w Glutamax (Invitrogen) supplemented with 5% HI—FBS, 10 mM HEPES, 50 uM β-mercaptoethanol, and 100 mG/L penicillin/streptomycin cocktail). Viable PBMCs were counted on a hemacytometer and kept on ice until ready for plating.
A 4× concentration (4 ug/ml or 40 ug/ml for TLR8 or TLR7 assays, respectively) of the TLR7/8 agonist ssRNA40 (IDT) was complexed with 10% DOTAP (Roche) in assay medium for 30 min prior to addition to the PBMC suspension (5 million cells/ml). After addition, the final concentration of ssRNA40 in the TLR7/8 stimulated PBMC suspension was 1 μg/ml for TLR8 assay, and 10 μg/mL for the TLR7 assay. The final DOTAP concentration was 2.5%. Diluted PBMCs (5 million cells/ml) were treated with 4×TLR9 agonist ODN2216 (Invivogen). Final concentration of ODN2216 in TLR9 stimulated PBMC suspension was 0.3 μM.
Agonist stimulated PBMCs were plated on the compound treated 384 well plates at 150,000 cells/well. Un-stimulated PBMCs were plated as controls on each plate. Plating volume was 40 μL per well. DMSO concentration in each well was 0.25%.
A separate plate, without compounds, with titrations of ssRNA40 and ODN2216 was included in every assay to measure agonist response of each donor's PBMC prep. Assay plates were placed in a tissue culture incubator (37° C., 5% CO2) for 14-16 hrs. After this incubation, the plates were centrifuged and stored at −20° C. until they were assayed.
IL-6 TR-FRET Assay for TLR8 activity: • 1) Cisbio Human IL-6 kit, 20,000 tests (62TNFPEC), and GNF High-Base TC 384 well plates (cat #789163G) were used; • 2) the Anti-TIL-6 Cryptate conjugate and the Anti-IL-6 XL665 conjugate were diluted 1:20 in Reconstitution Buffer; • 3) a 1:1 mixture of 3 μl/well Anti-IL-6 Cryptate conjugate and 3 μl/well Anti-IL-6 XL665 conjugate was prepared; • 4) 6 μl/well HTRF dilution mastermix was added to 6 μl of transferred supernatant samples in proxiplates; • 5) The plates were incubated for 3 hrs at rt in the dark; and • 6) the levels of IL-6 production was measured using an Envision plate reader (665 nm (emmission)/590 nm (excitation)) with HTRF settings and ratiometric read-out: (XL665 emission/Eu Cryptate emission)×10,000. IFNα2b AlphaLISA Assay for TLR7 or TLR9 activity After thawing the assay plates, 6 μL of supernatant samples were transferred to a low-volume AlphaPlate 384SW (Perkin-Elmer). The concentration of IFNα in supernatants was measured using the IFNα2b AlphaLISA Assay (Perkin-Elmer: AL297F). 3 μL of IFNα acceptor beads/biotinylated antibody solution was added first, using laboratory automation. After an hour incubation, […] of streptavidin […] bead solution was added. The plates containing this mixture were incubated in the dark for an hour and read on an appropriate plate reader at reading parameters set by the manufacturer. (Envision, EnSpire: Perkin-Elmer).
(In general: Time-resolved FRET reads energy transfer from a long-lived donor to a nearby acceptor.)

Take `COc1ccc(-c2cc(N3CCc4c(c(C)nn4CC45CCC(N)(CC4)CC5)C3)ccn2)cc1` [compound 89, 4-((5-(2-(4-methoxyphenyl)pyridin-4-yl)-3-methyl-4,5,6,7-tetrahydro-1H-pyrazolo[4,3-c]pyridin-1-yl)methyl)bicyclo[2.2.2]octan-1-amine]: the pIC50 is 6.21.

For `Cc1ccc(-c2cc(N3CCc4c(c(C)nn4CC45CCC(N)(CC4)CC5)C3)ccn2)cc1` [compound 90, 4-((3-methyl-5-(2-(p-tolyl)pyridin-4-yl)-4,5,6,7-tetrahydro-1H-pyrazolo[4,3-c]pyridin-1-yl)methyl)bicyclo[2.2.2]octan-1-amine], the pIC50 is 6.00.

In the case of `Cc1cc(N2CCc3c(c(C)nn3CC34CCC(N)(CC3)CC4)C2)cc(-c2ccccc2)n1` [compound 93, 4-((3-methyl-5-(2-methyl-6-phenylpyridin-4-yl)-4,5,6,7-tetrahydro-1H-pyrazolo[4,3-c]pyridin-1-yl)methyl)bicyclo[2.2.2]octan-1-amine], the pIC50 is 6.01.

`Cc1nn(CC23CCC(N)(CC2)CC3)c2c1CN(c1ccnc(-c3ccccn3)c1)CC2` [compound 94, 4-((5-([2,2'-bipyridin]-4-yl)-3-methyl-4,5,6,7-tetrahydro-1H-pyrazolo[4,3-c]pyridin-1-yl)methyl)bicyclo[2.2.2]octan-1-amine]: the pIC50 is 5.96.

Turning to `Cc1cc(N2CCc3c(c(C)nn3CC34CCC(N5CCCCC5)(CC3)CO4)C2)c2cnn(C)c2n1` [compound 95, 5-(1,6-dimethyl-1H-pyrazolo[3,4-b]pyridin-4-yl)-3-methyl-1-((4-(piperidin-1-yl)-2-oxabicyclo[2.2.2]octan-1-yl)methyl)-4,5,6,7-tetrahydro-1H-pyrazolo[4,3-c]pyridine], the pIC50 was 7.07.

`COCC(C)NC12CCC(Cn3nc(C)c4c3CCN(c3cc(C)nc5c3cnn5C)C4)(CC1)CC2` (stereo not drawn) [compound 96, 4-((5-(1,6-dimethyl-1H-pyrazolo[3,4-b]pyridin-4-yl)-3-methyl-4,5,6,7-tetrahydro-1H-pyrazolo[4,3-c]pyridin-1-yl)methyl)-N-(1-methoxypropan-2-yl)bicyclo[2.2.2]octan-1-amine]: the pIC50 is 6.11.

For `CCN(C)C12CCC(Cn3nc(C)c4c3CCN(c3cc(C)nc5c3cnn5C)C4)(CC1)CC2` [compound 97, 4-((5-(1,6-dimethyl-1H-pyrazolo[3,4-b]pyridin-4-yl)-3-methyl-4,5,6,7-tetrahydro-1H-pyrazolo[4,3-c]pyridin-1-yl)methyl)-N-ethyl-N-methylbicyclo[2.2.2]octan-1-amine], the pIC50 was 7.05.

Take `Cc1cc(N2CCc3c(c(C)nn3CC34CCC(N(C)C)(CC3)CO4)C2)c2cnn(C)c2n1` [compound 98, 1-((5-(1,6-dimethyl-1H-pyrazolo[3,4-b]pyridin-4-yl)-3-methyl-4,5,6,7-tetrahydro-1H-pyrazolo[4,3-c]pyridin-1-yl)methyl)-N,N-dimethyl-2-oxabicyclo[2.2.2]octan-4-amine]: the negative logarithm of the IC50 (pIC50) was 6.14.

With `Cc1nn(CC23CCC(N)(CC2)CC3)c2c1CN(c1nc(Cl)nc3c1COC3)CC2` [compound 103, 4-((5-(2-chloro-5,7-dihydrofuro[3,4-d]pyrimidin-4-yl)-3-methyl-4,5,6,7-tetrahydro-1H-pyrazolo[4,3-c]pyridin-1-yl)methyl)bicyclo[2.2.2]octan-1-amine], the pIC50 was 5.85.

For `Cc1cc(N2CCc3c(c(C)nn3CC34CCC(NC(=O)C5COCCN5C)(CC3)CC4)C2)c2cnn(C)c2n1` (stereo not drawn) [compound 122, N-(4-((5-(1,6-dimethyl-1H-pyrazolo[3,4-b]pyridin-4-yl)-3-methyl-4,5,6,7-tetrahydro-1H-pyrazolo[4,3-c]pyridin-1-yl)methyl)bicyclo[2.2.2]octan-1-yl)-4-methylmorpholine-3-carboxamide], the negative logarithm of the IC50 (pIC50) was 6.04.

For the compound `Cc1nc(N2CCc3c(c(C)nn3CC34CCC(N)(CC3)CC4)C2)c2cnn(C)c2n1` [compound 149, 4-((5-(1,6-dimethyl-1H-pyrazolo[3,4-d]pyrimidin-4-yl)-3-methyl-4,5,6,7-tetrahydro-1H-pyrazolo[4,3-c]pyridin-1-yl)methyl)bicyclo[2.2.2]octan-1-amine], the pIC50 was 6.16.

In the case of `CCn1ncc2c(N3CCc4c(c(C)nn4CC45CCC(N)(CC4)CC5)C3)cc(C)nc21` [compound 150, 4-((5-(1-ethyl-6-methyl-1H-pyrazolo[3,4-b]pyridin-4-yl)-3-methyl-4,5,6,7-tetrahydro-1H-pyrazolo[4,3-c]pyridin-1-yl)methyl)bicyclo[2.2.2]octan-1-amine], the pIC50 is 5.38.

One may read the pIC50 as the IC50 on a negative log10 scale, so that one unit is a factor of ten.
